# Data: ChEMBL document CHEMBL2311253, “Isatin replacements applied to the highly selective, muscarinic M1 PAM ML137: continued optimization of an MLPCN probe molecule” (Bioorg Med Chem Lett, 2013)
# The source made the active and inactive calls. The rule behind the calls is not given here.
# Tests used:
# Assay type in all cases: functional
# [1] = biological target: T1, Muscarinic acetylcholine receptor M4 (Homo sapiens) (UniProt P08173); experiment: Positive allosteric modulator activity at human muscarinic M4 receptor by calcium mobilization assay
# T1 sequence (whole entry): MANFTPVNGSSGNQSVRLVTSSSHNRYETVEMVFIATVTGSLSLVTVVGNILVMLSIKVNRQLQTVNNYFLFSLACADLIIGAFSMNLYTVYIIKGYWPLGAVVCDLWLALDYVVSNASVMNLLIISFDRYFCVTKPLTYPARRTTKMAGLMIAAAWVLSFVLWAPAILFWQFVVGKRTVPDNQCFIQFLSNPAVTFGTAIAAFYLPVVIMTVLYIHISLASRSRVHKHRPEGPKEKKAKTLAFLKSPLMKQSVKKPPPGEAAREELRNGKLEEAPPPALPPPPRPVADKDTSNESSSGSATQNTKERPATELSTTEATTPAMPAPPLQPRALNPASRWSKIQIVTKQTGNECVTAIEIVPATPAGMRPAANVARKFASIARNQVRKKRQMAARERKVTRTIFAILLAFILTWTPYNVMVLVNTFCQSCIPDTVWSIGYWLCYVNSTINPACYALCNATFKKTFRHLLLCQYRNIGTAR
# [2] = biological target: T2, Muscarinic acetylcholine receptor M1 (Homo sapiens) (UniProt P11229); experiment: Positive allosteric modulator activity at human muscarinic M1 receptor assessed as fold shift of acetylcholine concentration curve to the left at 30 uM by calcium mobilization assay relative to untreated acetylcholine control
# T2 sequence (whole entry): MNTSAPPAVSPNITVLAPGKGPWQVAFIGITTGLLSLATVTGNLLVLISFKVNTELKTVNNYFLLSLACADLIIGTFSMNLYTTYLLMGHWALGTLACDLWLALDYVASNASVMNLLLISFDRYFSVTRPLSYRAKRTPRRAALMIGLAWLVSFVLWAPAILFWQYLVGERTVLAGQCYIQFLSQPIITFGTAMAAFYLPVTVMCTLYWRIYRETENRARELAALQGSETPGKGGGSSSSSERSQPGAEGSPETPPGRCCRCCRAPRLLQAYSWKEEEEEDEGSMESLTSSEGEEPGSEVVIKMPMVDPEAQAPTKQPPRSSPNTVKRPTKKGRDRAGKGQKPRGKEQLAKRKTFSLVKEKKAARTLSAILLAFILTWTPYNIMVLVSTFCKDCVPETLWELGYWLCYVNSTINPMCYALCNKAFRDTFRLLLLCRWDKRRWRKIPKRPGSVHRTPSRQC
# [3] = biological target: T2, Muscarinic acetylcholine receptor M1 (Homo sapiens); experiment: Positive allosteric modulator activity at human muscarinic M1 receptor relative to acetylcholine by calcium mobilization assay; parameters: concentration or dose not given beside the values
# [4] = biological target: T3, Muscarinic acetylcholine receptor M1 (Homo sapiens, UniProt P11229); experiment: Positive allosteric modulator activity at human muscarinic M1 receptor by calcium mobilization assay
# T3 sequence (P11229 whole entry): T2 sequence (whole entry)
# [5] = biological target: T2, Muscarinic acetylcholine receptor M1 (Homo sapiens); experiment: Positive allosteric modulator activity at human muscarinic M1 receptor up to 30 uM by calcium mobilization assay
Activity [3] [%],EC50 [4] [µM],Activity [5],also measured,Structure (SMILES)
64,2.4,–,Activity [1]: Active; fold change (FC) [2]: 27.2,Cn1cc(-c2ccc(CN3C(=O)Cc4ccccc43)c(F)c2)cn1
–,–,inactive,–,CC(C)n1cc(-c2ccc(CN3C(=O)C(O)(C(F)(F)F)c4ccccc43)c(F)c2)cn1 (racemic)
–,–,inactive,–,Cn1cc(-c2ccc(CN3CCSc4ccccc43)c(F)c2)cn1
44,5.6,–,–,Cn1cc(-c2ccc(CN3C(=O)CCc4ccccc43)c(F)c2)cn1
29,> 10,–,–,Cn1cc(-c2ccc(CN3C(=O)C(O)(C(F)(F)F)c4ccccc43)c(Cl)c2)cn1 (racemic)
28,> 10,–,–,Cn1cc(-c2ccc(CN3C(=O)C(C)(N)c4ccccc43)c(F)c2)cn1 (racemic)
–,–,inactive,–,Cn1cc(-c2ccc(Cn3ccccc3=O)c(F)c2)cn1
51,–,–,fold change (FC) [2]: 7.4,Cn1cc(-c2ccc(CN3C(=O)C(O)(C(F)(F)F)c4ccccc43)c(F)c2)cn1 (racemic)
51,> 10,–,–,Cn1cc(-c2ccc(Cn3c(=O)ccc4ccccc43)c(F)c2)cn1
49,> 10,–,fold change (FC) [2]: 6.5,Cn1cc(-c2ccc(CN3C(=O)C(C)(O)c4ccccc43)c(F)c2)cn1 (racemic)
–,–,inactive,–,O=C1N(Cc2ccc(-c3cn[nH]c3)cc2F)c2ccccc2C1(O)C(F)(F)F (racemic)
–,–,inactive,–,Cn1cc(-c2ccc(CN3C(=O)c4cccc5cccc3c45)c(F)c2)cn1
–,–,inactive,–,Cn1cc(-c2ccc(CN3C(=O)C(O)(C(F)(F)F)c4ccccc43)c(F)c2)cn1 (centres undefined)
–,–,inactive,–,Cn1cc(-c2ccc(Cn3c(=O)[nH]c4ccccc43)c(F)c2)cn1
–,–,inactive,–,Cn1cc(-c2ccc(CN3CCc4ccccc43)c(F)c2)cn1
52,5.2,–,–,Cn1cc(-c2ccc(CN3C(=O)COc4ccccc43)c(F)c2)cn1
–,–,inactive,–,Cn1cc(-c2ccc(CN3C(=O)CCCc4ccccc43)c(F)c2)cn1
45,0.6,–,fold change (FC) [2]: 2.7,Cn1cc(-c2ccc(CN3C(=O)C(=O)c4ccccc43)c(F)c2)cn1
–,–,inactive,–,CC(=O)N(Cc1ccc(-c2cnn(C)c2)cc1F)c1ccccc1
53,> 10,–,–,CC1C(=O)N(Cc2ccc(-c3cnn(C)c3)cc2F)c2ccccc21 (racemic)

Activity [3] [%],EC50 [4] [µM],Activity [5],also measured,Structure (SMILES)
62,> 10,–,–,Cn1cc(-c2ccc(CN3C(=O)OCc4ccccc43)c(F)c2)cn1
37,3.3,–,–,CCn1cc(-c2ccc(CN3C(=O)C(O)(C(F)(F)F)c4ccccc43)c(F)c2)cn1 (racemic)
48,> 10,–,–,CN(C)C1(C)C(=O)N(Cc2ccc(-c3cnn(C)c3)cc2)c2ccccc21 (racemic)
–,–,inactive,–,Cn1cc(-c2ccc(Cn3c4ccccc4c4cccnc43)c(F)c2)cn1
46,> 10,–,–,Cn1cc(-c2ccc(CN3C(=O)C[S+]([O-])c4ccccc43)c(F)c2)cn1 (centres undefined)
–,–,inactive,–,Cn1cc(-c2ccc(CN3CC(c4ccccc4)CC3=O)c(F)c2)cn1 (centres undefined)
25,> 10,–,–,Cn1cc(-c2ccc(CN3C(=O)C(F)(C(F)(F)F)c4ccccc43)c(F)c2)cn1 (racemic)
59,> 10,–,fold change (FC) [2]: 8,Cn1cc(-c2ccc(CN3C(=O)C(O)(CF)c4ccccc43)c(F)c2)cn1 (racemic)
–,–,inactive,–,CCCn1cc(-c2ccc(CN3C(=O)C(O)(C(F)(F)F)c4ccccc43)c(F)c2)cn1 (racemic)
36,> 10,–,–,Cn1cc(-c2ccc(CN3C(=O)CS(=O)(=O)c4ccccc43)c(F)c2)cn1
–,–,inactive,–,Cn1cc(-c2ccc(Cn3c4ccccc4c4nccnc43)c(F)c2)cn1
–,–,inactive,–,COc1nc2ccccc2n1Cc1ccc(-c2cnn(C)c2)cc1F
41,> 10,–,–,Cn1cc(-c2ccc(CN3c4ccccc4CS3(=O)=O)c(F)c2)cn1
30,3.2,–,–,Cn1cc(-c2ccc(CN3C(=O)CSc4ccccc43)c(F)c2)cn1
–,–,inactive,–,Cn1cc(-c2ccc(CN3C(=O)C(F)(F)c4ccccc43)c(F)c2)cn1
50,1.3,–,–,Cn1cc(-c2ccc(CN3C(=O)C(N)c4ccccc43)c(F)c2)cn1 (racemic)
57,–,–,fold change (FC) [2]: 12,Cn1cc(-c2ccc(CN3C(=O)C(O)(C(F)(F)F)c4ccccc43)c(F)c2)cn1 (stereo in doubt; 23h)
66,4,–,fold change (FC) [2]: 15.2,Cn1cc(-c2ccc(CN3C(=O)C(O)(C(F)(F)F)c4ccccc43)cc2)cn1 (racemic)
–,–,inactive,–,COC1(C(F)(F)F)C(=O)N(Cc2ccc(-c3cnn(C)c3)cc2F)c2ccccc21 (racemic)
53,> 10,–,–,Cn1cc(-c2ccc(CN3C(=O)NCc4ccccc43)c(F)c2)cn1
